How the values were obtained:
ZfGBA1 = target: T1, ZfGBA1 (Zygaena filipendulae, UniProt A0A1W1EGM7); assay type: cell-based
T1 construct: expressed with and without (*) predicted native N-terminal signal peptide; retained in cells

ZfBGD2 = target: T2, ZfBGD2 (Zygaena filipendulae, UniProt A0A1W1EGN8); assay type: cell-based
T2 construct: expressed with and without (*) predicted native N-terminal signal peptide; retained in cells
T2 sequence (A0A1W1EGN8 19-524 limits assumed): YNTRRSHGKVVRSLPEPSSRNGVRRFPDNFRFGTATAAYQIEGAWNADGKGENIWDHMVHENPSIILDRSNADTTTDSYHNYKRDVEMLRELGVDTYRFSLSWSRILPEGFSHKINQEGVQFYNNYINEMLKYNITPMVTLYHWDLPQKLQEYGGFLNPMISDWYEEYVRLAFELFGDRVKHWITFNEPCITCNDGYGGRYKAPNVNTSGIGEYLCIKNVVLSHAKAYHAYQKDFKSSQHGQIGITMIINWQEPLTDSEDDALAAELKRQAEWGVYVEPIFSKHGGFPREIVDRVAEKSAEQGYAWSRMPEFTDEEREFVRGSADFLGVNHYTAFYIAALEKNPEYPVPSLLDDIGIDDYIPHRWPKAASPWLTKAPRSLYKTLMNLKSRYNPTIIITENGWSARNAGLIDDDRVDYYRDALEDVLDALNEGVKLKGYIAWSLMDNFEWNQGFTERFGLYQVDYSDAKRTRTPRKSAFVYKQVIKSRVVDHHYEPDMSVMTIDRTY

T1 sequence (A0A1W1EGM7 entry or part of it): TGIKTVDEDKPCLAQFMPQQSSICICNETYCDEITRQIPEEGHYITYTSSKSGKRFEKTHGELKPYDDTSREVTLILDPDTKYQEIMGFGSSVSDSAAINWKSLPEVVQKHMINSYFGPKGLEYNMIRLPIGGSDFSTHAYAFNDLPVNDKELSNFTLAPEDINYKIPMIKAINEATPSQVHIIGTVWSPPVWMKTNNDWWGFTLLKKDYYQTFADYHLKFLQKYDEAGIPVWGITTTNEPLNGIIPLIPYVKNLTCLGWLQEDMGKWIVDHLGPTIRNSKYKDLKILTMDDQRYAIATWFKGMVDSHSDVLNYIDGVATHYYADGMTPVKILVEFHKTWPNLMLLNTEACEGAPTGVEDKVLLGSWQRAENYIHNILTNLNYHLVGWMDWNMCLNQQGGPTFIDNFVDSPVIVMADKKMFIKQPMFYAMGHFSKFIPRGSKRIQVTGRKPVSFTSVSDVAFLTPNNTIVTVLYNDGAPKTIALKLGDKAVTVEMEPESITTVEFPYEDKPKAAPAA

CC(C)(C#N)O[C@@H]1O[C@H](CO)[C@@H](O)[C@H](O)[C@H]1O [lin, linamarin]
HCN release from re-suspended Sf9 cells, Feigl-Anger paper and colorimetric (ZfGBA1): ZfBGD2 and ZfGBA1 also hydrolysed linamarin and lotaustralin | HCN release from re-suspended Sf9 cells, Feigl-Anger paper and colorimetric (ZfBGD2): ZfBGD2 and ZfGBA1 also hydrolysed linamarin and lotaustralin

CC[C@](C)(C#N)O[C@@H]1O[C@H](CO)[C@@H](O)[C@H](O)[C@H]1O [lot, lotaustralin]
HCN release from re-suspended Sf9 cells, Feigl-Anger paper and colorimetric (ZfGBA1): ZfBGD2 and ZfGBA1 also hydrolysed linamarin and lotaustralin | HCN release from re-suspended Sf9 cells, Feigl-Anger paper and colorimetric (ZfBGD2): ZfBGD2 and ZfGBA1 also hydrolysed linamarin and lotaustralin

— article PMC5493921 (Royal Society Open Science, 2017)
